The target of one assay is T1, Aurora kinase A (Homo sapiens, UniProt O14965).
T1 sequence (O14965 whole entry): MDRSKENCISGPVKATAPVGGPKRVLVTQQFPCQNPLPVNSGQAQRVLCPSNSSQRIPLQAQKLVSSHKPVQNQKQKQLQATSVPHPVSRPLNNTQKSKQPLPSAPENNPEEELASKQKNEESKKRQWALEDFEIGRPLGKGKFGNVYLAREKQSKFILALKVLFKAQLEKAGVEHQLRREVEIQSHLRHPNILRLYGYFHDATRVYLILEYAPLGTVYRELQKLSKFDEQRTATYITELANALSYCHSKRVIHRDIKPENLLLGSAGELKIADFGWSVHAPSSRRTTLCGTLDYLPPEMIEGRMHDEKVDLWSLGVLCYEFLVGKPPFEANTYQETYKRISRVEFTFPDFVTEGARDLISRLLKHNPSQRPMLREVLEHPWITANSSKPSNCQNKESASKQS

For assay [1], the target named is Calcium/calmodulin-dependent protein kinase type II subunit gamma (Homo sapiens, UniProt Q13555).
The target in assay [2] is Cyclin-dependent kinase 2 (Homo sapiens, UniProt P24941).
For assay [3], the target named is Casein kinase I isoform gamma-1 (Homo sapiens, UniProt Q9HCP0).
For assay [4], the target named is T2, Cytochrome c1, heme protein, mitochondrial (Homo sapiens, UniProt P08574).
T2 sequence (P08574 whole entry): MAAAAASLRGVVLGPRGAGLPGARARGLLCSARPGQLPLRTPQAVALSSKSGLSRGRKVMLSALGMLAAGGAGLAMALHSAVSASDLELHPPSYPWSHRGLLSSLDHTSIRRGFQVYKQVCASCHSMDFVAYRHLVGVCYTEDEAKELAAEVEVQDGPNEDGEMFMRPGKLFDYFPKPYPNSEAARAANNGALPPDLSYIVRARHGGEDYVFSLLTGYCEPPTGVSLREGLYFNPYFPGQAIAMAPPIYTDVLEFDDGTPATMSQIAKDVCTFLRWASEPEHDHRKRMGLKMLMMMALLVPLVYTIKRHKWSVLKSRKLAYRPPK

The target of assay [5] is T3, ATP-dependent RNA helicase DDX42 (Homo sapiens, UniProt Q86XP3).
T3 sequence (Q86XP3 whole entry): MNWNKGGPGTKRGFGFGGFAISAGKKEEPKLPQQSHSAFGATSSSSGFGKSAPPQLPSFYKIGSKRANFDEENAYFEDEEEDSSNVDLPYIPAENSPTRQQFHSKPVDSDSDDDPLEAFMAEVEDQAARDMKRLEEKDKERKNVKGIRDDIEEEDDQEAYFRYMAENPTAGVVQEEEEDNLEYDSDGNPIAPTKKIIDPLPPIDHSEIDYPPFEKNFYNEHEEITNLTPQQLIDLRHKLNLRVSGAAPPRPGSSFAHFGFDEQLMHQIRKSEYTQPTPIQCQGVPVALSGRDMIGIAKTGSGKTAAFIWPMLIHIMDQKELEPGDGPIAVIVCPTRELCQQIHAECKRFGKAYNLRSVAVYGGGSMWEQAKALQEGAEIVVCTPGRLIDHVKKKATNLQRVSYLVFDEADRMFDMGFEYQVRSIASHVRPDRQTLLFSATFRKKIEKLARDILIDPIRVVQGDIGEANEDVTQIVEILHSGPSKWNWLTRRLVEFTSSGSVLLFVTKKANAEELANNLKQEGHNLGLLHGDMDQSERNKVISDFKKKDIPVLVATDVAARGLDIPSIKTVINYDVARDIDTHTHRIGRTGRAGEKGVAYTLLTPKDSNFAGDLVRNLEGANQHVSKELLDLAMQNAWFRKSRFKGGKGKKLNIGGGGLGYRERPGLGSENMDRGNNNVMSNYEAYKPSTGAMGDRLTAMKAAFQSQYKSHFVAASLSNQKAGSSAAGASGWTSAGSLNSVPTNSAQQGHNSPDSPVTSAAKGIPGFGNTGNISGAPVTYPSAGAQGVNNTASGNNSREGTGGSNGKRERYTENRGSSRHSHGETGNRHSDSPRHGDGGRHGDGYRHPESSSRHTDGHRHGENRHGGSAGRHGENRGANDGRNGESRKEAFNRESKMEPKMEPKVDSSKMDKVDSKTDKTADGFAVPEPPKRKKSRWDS

Assay [6] has as its target T4, Delta(24)-sterol reductase (Homo sapiens, UniProt Q15392).
T4 sequence (Q15392 whole entry): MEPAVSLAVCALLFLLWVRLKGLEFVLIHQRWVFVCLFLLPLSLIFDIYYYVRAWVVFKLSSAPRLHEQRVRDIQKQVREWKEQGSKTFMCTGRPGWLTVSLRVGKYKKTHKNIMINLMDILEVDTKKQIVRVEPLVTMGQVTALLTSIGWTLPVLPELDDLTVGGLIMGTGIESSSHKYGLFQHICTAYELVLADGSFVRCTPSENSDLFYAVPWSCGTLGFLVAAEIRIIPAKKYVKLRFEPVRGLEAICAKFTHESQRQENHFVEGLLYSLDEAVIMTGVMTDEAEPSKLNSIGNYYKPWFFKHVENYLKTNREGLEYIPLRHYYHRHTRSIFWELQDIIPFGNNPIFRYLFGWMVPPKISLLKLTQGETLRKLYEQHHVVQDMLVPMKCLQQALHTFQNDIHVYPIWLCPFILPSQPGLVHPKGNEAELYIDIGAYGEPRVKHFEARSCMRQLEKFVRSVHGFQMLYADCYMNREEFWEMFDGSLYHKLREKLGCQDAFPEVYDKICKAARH

In assay [7] the target is Glycogen synthase kinase-3 alpha (Homo sapiens, UniProt P49840).
For assay [8], the target named is Putative heat shock protein HSP 90-beta 2 (Homo sapiens, UniProt Q58FF8).
The target in assay [9] is Mitogen-activated protein kinase 9 (Homo sapiens, UniProt P45984).
The target in assay [10] is S-adenosylmethionine synthase isoform type-2 (Homo sapiens, UniProt P31153).
Assay [11] has as its target T5, Ribosyldihydronicotinamide dehydrogenase [quinone] (Homo sapiens, UniProt P16083).
T5 sequence (P16083 whole entry): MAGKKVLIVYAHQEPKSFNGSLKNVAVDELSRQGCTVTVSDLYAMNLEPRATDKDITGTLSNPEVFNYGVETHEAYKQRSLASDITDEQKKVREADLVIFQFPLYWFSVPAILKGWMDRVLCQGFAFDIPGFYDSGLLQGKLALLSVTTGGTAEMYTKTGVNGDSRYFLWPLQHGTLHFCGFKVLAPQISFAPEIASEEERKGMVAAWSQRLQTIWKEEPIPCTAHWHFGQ

Assay [12] addresses Protein kinase C delta type (Homo sapiens, UniProt Q05655).

The source of these data is ChEMBL document CHEMBL3991601, “The target landscape of clinical kinase drugs” (Science, 2017).

Calls of active or inactive are those of the source. Cut-off read from the data, not from the text of the source, for most assays here: actives have a measured Kd and inactives only a lower limit. Where only a bound is given, the exact number is not on record here.
Note: in the data inactive means no Kd found up to 30 µM.

Chain of S-adenosylmethionine synthase isoform type-2 (P31153 whole entry, canonical isoform): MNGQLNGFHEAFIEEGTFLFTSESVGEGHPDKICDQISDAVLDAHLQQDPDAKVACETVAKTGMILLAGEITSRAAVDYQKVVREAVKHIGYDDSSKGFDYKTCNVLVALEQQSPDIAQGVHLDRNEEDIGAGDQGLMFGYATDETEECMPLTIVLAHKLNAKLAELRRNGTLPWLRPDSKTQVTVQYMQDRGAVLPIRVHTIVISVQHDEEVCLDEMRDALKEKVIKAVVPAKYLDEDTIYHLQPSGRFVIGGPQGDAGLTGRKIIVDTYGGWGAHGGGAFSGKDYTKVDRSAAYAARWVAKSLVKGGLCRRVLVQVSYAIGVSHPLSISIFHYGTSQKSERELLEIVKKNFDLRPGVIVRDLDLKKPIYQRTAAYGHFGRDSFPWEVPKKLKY
Chain of Glycogen synthase kinase-3 alpha (P49840 whole entry): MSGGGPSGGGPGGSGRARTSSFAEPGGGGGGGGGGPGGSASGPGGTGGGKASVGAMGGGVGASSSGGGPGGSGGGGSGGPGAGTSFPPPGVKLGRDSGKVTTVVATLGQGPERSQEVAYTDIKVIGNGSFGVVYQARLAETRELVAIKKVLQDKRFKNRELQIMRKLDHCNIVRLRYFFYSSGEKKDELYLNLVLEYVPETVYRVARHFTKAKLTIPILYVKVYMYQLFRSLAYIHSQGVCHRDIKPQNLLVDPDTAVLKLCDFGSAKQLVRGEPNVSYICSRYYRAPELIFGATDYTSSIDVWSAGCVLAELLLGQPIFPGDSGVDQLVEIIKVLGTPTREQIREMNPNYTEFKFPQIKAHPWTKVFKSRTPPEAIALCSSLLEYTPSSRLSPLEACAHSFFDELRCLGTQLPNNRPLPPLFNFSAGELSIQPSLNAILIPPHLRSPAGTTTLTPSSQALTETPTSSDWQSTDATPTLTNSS
Chain of Protein kinase C delta type (Q05655 whole entry): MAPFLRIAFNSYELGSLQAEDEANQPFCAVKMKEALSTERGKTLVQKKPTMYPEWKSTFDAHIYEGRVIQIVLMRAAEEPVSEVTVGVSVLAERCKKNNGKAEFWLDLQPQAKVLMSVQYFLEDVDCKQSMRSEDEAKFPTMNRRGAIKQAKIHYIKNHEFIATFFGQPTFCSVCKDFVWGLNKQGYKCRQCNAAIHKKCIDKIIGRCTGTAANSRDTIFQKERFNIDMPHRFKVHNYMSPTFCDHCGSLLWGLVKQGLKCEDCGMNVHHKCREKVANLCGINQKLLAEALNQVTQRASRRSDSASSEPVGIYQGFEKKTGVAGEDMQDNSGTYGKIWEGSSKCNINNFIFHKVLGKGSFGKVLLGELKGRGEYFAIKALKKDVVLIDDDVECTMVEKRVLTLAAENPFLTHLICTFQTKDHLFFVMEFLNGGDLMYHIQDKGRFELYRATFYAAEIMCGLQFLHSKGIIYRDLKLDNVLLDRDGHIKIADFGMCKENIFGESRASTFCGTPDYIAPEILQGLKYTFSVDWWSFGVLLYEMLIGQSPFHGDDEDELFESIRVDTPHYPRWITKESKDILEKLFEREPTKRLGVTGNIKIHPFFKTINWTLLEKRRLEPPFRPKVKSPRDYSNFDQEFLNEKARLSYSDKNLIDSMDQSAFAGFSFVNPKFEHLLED
Chain of Casein kinase I isoform gamma-1 (Q9HCP0 whole entry, canonical isoform): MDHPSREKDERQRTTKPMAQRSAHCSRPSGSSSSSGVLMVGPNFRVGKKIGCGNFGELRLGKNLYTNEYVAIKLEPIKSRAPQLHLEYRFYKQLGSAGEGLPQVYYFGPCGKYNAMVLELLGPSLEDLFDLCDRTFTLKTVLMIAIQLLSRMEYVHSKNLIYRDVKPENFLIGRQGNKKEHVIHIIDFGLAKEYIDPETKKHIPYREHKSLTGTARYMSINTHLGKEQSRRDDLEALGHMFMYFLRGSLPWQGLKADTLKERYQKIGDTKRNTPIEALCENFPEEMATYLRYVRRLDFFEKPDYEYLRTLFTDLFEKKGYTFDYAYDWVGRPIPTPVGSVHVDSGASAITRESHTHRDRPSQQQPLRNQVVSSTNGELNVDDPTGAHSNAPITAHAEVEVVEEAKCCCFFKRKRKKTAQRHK
Chain of Mitogen-activated protein kinase 9 (P45984 whole entry, canonical isoform): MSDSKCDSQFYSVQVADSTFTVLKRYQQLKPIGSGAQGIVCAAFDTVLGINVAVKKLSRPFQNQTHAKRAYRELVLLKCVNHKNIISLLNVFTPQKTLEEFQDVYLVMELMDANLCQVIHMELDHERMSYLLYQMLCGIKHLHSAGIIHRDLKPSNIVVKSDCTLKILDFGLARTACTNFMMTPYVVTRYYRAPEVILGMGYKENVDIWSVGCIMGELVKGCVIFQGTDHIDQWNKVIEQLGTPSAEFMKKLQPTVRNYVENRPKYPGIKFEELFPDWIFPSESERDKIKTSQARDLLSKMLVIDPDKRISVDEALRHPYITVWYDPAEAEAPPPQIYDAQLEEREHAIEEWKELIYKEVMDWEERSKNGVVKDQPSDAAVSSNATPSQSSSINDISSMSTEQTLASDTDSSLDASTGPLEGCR
Chain of Calcium/calmodulin-dependent protein kinase type II subunit gamma (Q13555 whole entry): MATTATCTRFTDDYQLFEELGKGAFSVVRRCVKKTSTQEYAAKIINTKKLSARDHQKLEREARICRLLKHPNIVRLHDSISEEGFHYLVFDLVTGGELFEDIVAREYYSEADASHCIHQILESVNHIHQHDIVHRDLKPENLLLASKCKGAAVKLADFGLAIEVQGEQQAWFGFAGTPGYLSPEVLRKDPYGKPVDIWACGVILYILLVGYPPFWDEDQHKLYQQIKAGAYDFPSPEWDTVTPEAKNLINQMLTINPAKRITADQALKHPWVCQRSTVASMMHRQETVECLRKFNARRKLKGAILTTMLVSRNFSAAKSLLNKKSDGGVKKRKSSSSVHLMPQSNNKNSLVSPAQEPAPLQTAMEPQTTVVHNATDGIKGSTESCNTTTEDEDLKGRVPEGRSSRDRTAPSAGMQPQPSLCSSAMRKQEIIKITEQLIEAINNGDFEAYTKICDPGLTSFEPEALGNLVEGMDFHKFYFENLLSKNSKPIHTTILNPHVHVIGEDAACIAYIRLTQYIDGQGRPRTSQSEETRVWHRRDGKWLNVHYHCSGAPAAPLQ
Chain of Putative heat shock protein HSP 90-beta 2 (Q58FF8 whole entry): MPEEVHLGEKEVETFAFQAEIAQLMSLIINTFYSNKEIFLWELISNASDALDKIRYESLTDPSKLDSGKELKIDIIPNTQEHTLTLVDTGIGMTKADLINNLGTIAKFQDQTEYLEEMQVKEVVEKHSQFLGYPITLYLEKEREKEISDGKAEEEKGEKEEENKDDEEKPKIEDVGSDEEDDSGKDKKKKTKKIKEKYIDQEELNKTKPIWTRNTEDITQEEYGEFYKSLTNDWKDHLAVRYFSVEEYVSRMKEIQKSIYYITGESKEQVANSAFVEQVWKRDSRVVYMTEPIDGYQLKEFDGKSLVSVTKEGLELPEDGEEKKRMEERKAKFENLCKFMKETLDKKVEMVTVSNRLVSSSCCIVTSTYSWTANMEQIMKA

As for `Cc1cc(Nc2ncnc3ccc(NC4=NC(C)(C)CO4)cc23)ccc1Oc1ccn2ncnc2c1` [TUCATINIB], the Kd (on Aurora kinase A; in assay [1]; in assay [2]; in assay [3]; in assay [4]; in assay [5]) was > 30 µM (inactive) each time. Further, the Kd in [6] is > 30 µM (inactive); in assay [7], > 30 µM (inactive); in assay [8] it was > 30 µM (inactive); in [9], > 30 µM (inactive); in [10], > 30 µM (inactive); in [11], 2.46 µM (active). The Kd in [12] is > 30 µM (inactive).

`Cn1ncc(Cl)c1-c1cc(C(=O)N[C@H](CN)Cc2ccc(F)c(F)c2)oc1Cl` [UPROSERTIB]: the Kd (on Aurora kinase A; in assay [1]; in assay [2]; in assay [3]; in assay [4]; in [5]) was > 30 µM (inactive) each time. In addition, the Kd in [6], in [7], in assay [8], in [9], in [10] and in assay [11] was > 30 µM (inactive) each time. Further, the Kd in [12] is > 30 µM (inactive).

The Kd is the equilibrium constant for the complex coming apart.
